According to US20260191819A1, “COMPOSITION FOR THE TREATMENT OF THE HUMAN PAPILLOMAVIRUS INFECTION (HPV)” (LO.LI. PHARMA S.R.L., priority 2022, published 2026):

What was measured:
viral protein E7 = conditions: cited from earlier work
[1] = tested on: epithelial cervical cell line infected with high-risk HPV (TLC1 and cervical cancer lines such as Hela and Me180); conditions: dose-dependent manner; cited from earlier work
human cervical lesions = conditions: EGCG tablets (200 mg), 8-12 weeks, cited from earlier work
Hela cells = test: Annexin V/7-AAD staining, apoptosis in Hela cells; type: cell-based, human; conditions: 48 hr, EGCG 50 mcg/ml, Fol 900 nM, B12 1000 nM, Hyal 10 mcg/ml, FIG. 1
Experimental: The combined action of epigallocatechin gallate (EGCG) and at least one the following other agents: folic acid, vitamin B12, hyaluronic acid, in respect to the single substance, has been tested in vitro in immortalized cervical cancer cell line (HeLa).
The cells were seeded in […] flasks in low glucose DMEM, to which had been added FBS (Fetal Bovine Serum) 10%, L-Glu (L-glutamine) 1%, Pen/Strep (penicillin/streptomycin) 1%. The cells were kept in an incubator at a temperature of 37° C., 5% carbon dioxide and 95% humidity and maintained in culture, as described above, until they reached 50% confluency. On the day of the experiment the cells were treated as follows: • 1. […]
Apoptosis (cell death) was evaluated after 48 hours of treatment using the Annexin V kit. The expression of onco-suppressor genes (p53 and/or pRB) and/or viral E6 and/or E7 genes was evaluated after 48 hours of treatment through use of real time PCR. […]
Hela cells were cultured at confluence into 25 cm^2 flasks (Falcon, Becton Dickinson Labware, Franklin Lakes, NJ, USA) in complete medium. […] After 48 hr of treatment, cell status was assessed through use of the FITC Annexin V Apoptosis Detection Kit I according to the instructions of the manufacturer (BD Pharmingen™). […]

p53 protein = conditions: cited from earlier work
cell model in vitro = conditions: cited from earlier work
vaginal atrophy = conditions: 12 post-menopausal women, 3-month treatment; cited from earlier work
[2] = cytology, colposcopy, histology, HPV DNA test

Substance | level of viral protein E7 expression (viral protein E7) | apoptosis, i.e., cell death [1] | cellular growth [1] | treated women with improvement of general clinical status (human cervical lesions; 88 women) [%] | women with moderate lesions responding positively to the treatment (human cervical lesions; [2]) [%] | women with serious lesions responding positively to the treatment (human cervical lesions; [2]) [%] | apoptosis (cell death) compared to control (Hela cells) | level of p53 protein expression (p53 protein) | process of wound healing in comparison with the control (cell model in vitro) | mucous membrane (vaginal atrophy) | symptoms related to vaginal atrophy (itching, burning, and dyspareunia) (vaginal atrophy)
(−)-epigallocatechin gallate [EGCG] | reduces that of the viral protein E7 | promotes apoptosis | inhibits cellular growth | 60 | 100 | 71 | no differences in apoptosis levels | increases the level of p53 protein expression |  |  | 
hyaluronic acid |  |  |  |  |  |  | significantly increased apoptosis |  | significantly accelerates the process of wound healing | restores the mucous membrane | dramatically reducing symptoms
